# Laboratory results as given in patent US6380255B1, “Treatment for dermal skin atrophy using thyroid hormone compounds or thyroid hormone-like compounds” (Karo Bio AB, priority 1995, dated 2002).
# Values joined by “and” are separate entries in the source; they are usually repeats but may differ in a detail not shown here. Equal entries are not always repeated.
# Tested on: Balb/c mice
# Test: Prevention of glucocorticoid (betamethasone)-induced dermal atrophy in normal mice, dermis thickness in Van Gieson stained biopsies
# Type: in vivo, mouse
# Settings: for Thickness of dermis, mean (mm) / Thickness of dermis (mm) in 5 low power fields (×10): one week
# Source text: Normal Balb/c mice were used for the experiments. […] Therefore each averaged measurement represents 25 determinations.
# In FIGS. 1-3, the arrows show the dermal layer which is predominantly collagen fibers.
# [1] = Bet. 0.2 mM + 0.0008 mM test compound, topical daily
# [2] = Bet. 0.2 mM + 0.008 mM test compound, topical daily
# [3] = Bet. 0.2 mM + 0.08 mM test compound, topical daily
# [4] = Bet. 0.2 mM + 0.8 mM test compound, topical daily
Structure (SMILES),"Thickness of dermis, mean (mm) (Bet. 0.2 mM + placebo cr. (hydrophilic cream))","Thickness of dermis (mm) in 5 low power fields (×10) (Bet. 0.2 mM + placebo cr. (hydrophilic cream), listed as Bet.)","Thickness of dermis, mean (mm) (Betamethasone 0.2 mM alone, 100 μl topical daily)",Appearance of dermis in biopsy micrograph (FIG. 1) (betamethasone alone for one week),Thickness of dermis (mm) in 5 low power fields (×10) [1],"Thickness of dermis, mean (mm) [1] [mm]",Thickness of dermis (mm) in 5 low power fields (×10) [2],"Thickness of dermis, mean (mm) [2] [mm]",Thickness of dermis (mm) in 5 low power fields (×10) [3],"Thickness of dermis, mean (mm) [3] [mm]",Thickness of dermis (mm) in 5 low power fields (×10) [4],"Thickness of dermis, mean (mm) [4] [mm]",Thickness of dermis (mm) in 5 low power fields (×10) (0.8 mM test compound alone (no betamethasone)),Appearance of dermis in biopsy micrograph (FIG. 3) (Triac alone for one week),Concentration at which the effect on betamethasone-induced atrophy saturates (range 0.0008 to 8 mM)
"C[C@H]1C[C@H]2[C@@H]3CCC4=CC(=O)C=C[C@]4(C)[C@@]3(F)[C@@H](O)C[C@]2(C)[C@@]1(O)C(=O)CO [Betamethasone, betamethasone, reference compound]",0.40,0.40 mm and 0.42 mm and 0.38 mm and 0.39 mm,0.37 mm and 0.42 mm,very thinned,,,,,,,,,,,
"OCc1cc(I)c(Oc2ccc(O)c(I)c2)c(I)c1 [KB-026, 4-(4-hydroxymethyl-2,6-diiodophenoxy)-2-iodo-phenol]",,,,,0.40 mm and 0.41 mm and 0.42 mm,0.41,0.45 mm and 0.42 mm and 0.46 mm and 0.44 mm,0.44,0.44 mm and 0.50 mm and 0.49 mm and 0.46 mm,0.48,0.50 mm and 0.52 mm and 0.48 mm and 0.51 mm,0.50,,,
"CC(C)c1cc(Oc2c(Br)cc(Cc3nnn[nH]3)cc2Br)ccc1O [KB-067, 4-[2,6-dibromo-4-(1H-tetrazol-5-ylmethyl)-phenoxy]-2-isopropyl-phenol]",,,,,0.42 mm and 0.39 mm and 0.40 mm,0.40,0.40 mm and 0.39 mm and 0.41 mm,0.40,0.40 mm and 0.41 mm and 0.39 mm,0.40,0.45 mm and 0.46 mm and 0.47 mm and 0.48 mm,0.46,,,
"O=C(O)Cc1cc(I)c(Oc2ccc(O)c(I)c2)c(I)c1 [TriAc, [4-(4-hydroxy-3-iodophenoxy)-3,5-diiodophenyl]acetic acid]",,,,,0.40 mm and 0.36 mm and 0.38 mm,0.38,0.40 mm and 0.44 mm,0.45,,,,,0.72 mm and 0.82 mm and 0.84 mm and 0.76 mm,very dense and thicker than that shown in FIG. 2,approximately 0.8 mM
O=C(O)CCc1cc(I)c(Oc2ccc(O)c(I)c2)c(I)c1 [TriProp],,,,,0.41 mm and 0.40 mm and 0.46 mm,0.42,0.45 mm and 0.50 mm and 0.40 mm and 0.42 mm and 0.48 mm,0.45,0.50 mm and 0.48 mm and 0.47 mm and 0.44 mm,0.48,0.50 mm and 0.45 mm and 0.47 mm and 0.48 mm and 0.52 mm,0.48,,,
